# Data taken from patent publication US20080096449A1, “USE OF METALLIC GLUCONATE SALTS IN THE PRODUCTION OF ANTIMICROBIALLY ACTIVE SUBSTRATES” (priority 2002, published 2008).
# What was measured:
# Test in all cases: Minimum inhibitory concentration (MIC)
# Type in all cases: cell-based
# [1] = system: Aspergillus niger ATCC 16404; settings: strain AN
# [2] = system: Pseudomonas aeruginosa ATCC 9027; settings: strain PA
# [3] = system: Escherichia coli ATCC 11229; settings: strain EC
# [4] = system: Staphylococcus aureus ATCC 6538; settings: strain SA
# [5] = system: Candida albicans ATCC 10231; settings: strain CA
substance,measurement,setting,value
zinc gluconate,MIC,[1],6250 ppm
same,MIC,[2],12500 ppm
same,MIC,[3],6250 ppm
same,MIC,[4],5000 ppm
same,MIC,[5],3120 ppm
